Data published in ChEMBL document CHEMBL1201862, “PubChem BioAssay data set” (2004).
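Assay format: 96-well plates, 48-hour exposure. Abbreviation: GI50, concentration required for 50% inhibition of growth.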 Active and inactive are the calls of the source. No stated cut-off is given here; in the data, active = GI50 up to about 1.1 µM and inactive = higher.

What was measured:
Experiment in all cases: NCI tumour cell line growth inhibition, 48 h
786-0 = test system: 786-0
A498 = test system: A498
A549 = test system: A549
ACHN = test system: ACHN
BT-549 = test system: BT-549
CAKI-1 = test system: CAKI-1
CCRF-CEM = test system: CCRF-CEM
COLO 205 = test system: COLO 205
DU-145 = test system: DU-145
EKVX = test system: EKVX
HCC 2998 = test system: HCC 2998
HCT-116 = test system: HCT-116
HCT-15 = test system: HCT-15
HL-60 = test system: HL-60
HOP-62 = test system: HOP-62
HOP-92 = test system: HOP-92
HT-29 = test system: HT-29
Hs-578T = test system: Hs-578T
IGROV-1 = test system: IGROV-1
K562 = test system: K562
KM12 = test system: KM12
LOX IMVI = test system: LOX IMVI
M14 = test system: M14
MCF7 = test system: MCF7
MDA-MB-231 = test system: MDA-MB-231
MDA-MB-435 = test system: MDA-MB-435
MDA-N = test system: MDA-N
MOLT-4 = test system: MOLT-4
NCI-H226 = test system: NCI-H226
NCI-H23 = test system: NCI-H23
NCI-H460 = test system: NCI-H460
NCI-H522 = test system: NCI-H522
NCI/ADR-RES = test system: NCI/ADR-RES
OVCAR-3 = test system: OVCAR-3
OVCAR-4 = test system: OVCAR-4
OVCAR-5 = test system: OVCAR-5
OVCAR-8 = test system: OVCAR-8
PC-3 = test system: PC-3
RPMI-8226 = test system: RPMI-8226
RXF 393 = test system: RXF 393
SF-268 = test system: SF-268
SF-295 = test system: SF-295
SF-539 = test system: SF-539
SK-MEL-28 = test system: SK-MEL-28
SK-MEL-2 = test system: SK-MEL-2
SK-MEL-5 = test system: SK-MEL-5
SN12C = test system: SN12C
SNB-19 = test system: SNB-19
SNB-75 = test system: SNB-75
SR = test system: SR
SW-620 = test system: SW-620
T47D = test system: T47D
TK-10 = test system: TK-10
U-251 = test system: U-251
UACC-257 = test system: UACC-257
UACC-62 = test system: UACC-62
UO-31 = test system: UO-31

**Q.** `CCOC(=O)c1ccc(OCc2nc3cc(C(F)(F)F)ccc3nc2-c2ccccc2)cc1` was tested. Which GI50 (786-0) did it give?
**A.** Its GI50 is > 100 µM (inactive).

**Q.** What about the GI50 (A498) of the same molecule?
**A.** Its GI50 is > 100 µM (inactive).

**Q.** And the GI50 (A549)?
**A.** The GI50 was > 100 µM (inactive).

**Q.** And the GI50 (ACHN)?
**A.** Its GI50 is > 100 µM (inactive).

**Q.** What about the GI50 (BT-549) of the same molecule?
**A.** Its GI50 is > 100 µM (inactive).

**Q.** What about the GI50 (CAKI-1) of the same molecule?
**A.** The GI50 was > 100 µM (inactive).

**Q.** What about the GI50 (CCRF-CEM) of the same molecule?
**A.** Its GI50 is > 100 µM (inactive).

**Q.** And the GI50 (COLO 205)?
**A.** The GI50 was > 100 µM (inactive).

**Q.** And the GI50 (DU-145)?
**A.** The GI50 was > 100 µM (inactive).

**Q.** What about the GI50 (EKVX) of the same molecule?
**A.** The GI50 was > 100 µM (inactive).

**Q.** What about the GI50 (HCC 2998) of the same molecule?
**A.** The GI50 was > 100 µM (inactive).

**Q.** And the GI50 (HCT-116)?
**A.** The GI50 was > 100 µM (inactive).

**Q.** And the GI50 (HCT-15)?
**A.** The GI50 was > 100 µM.

**Q.** What about the GI50 (HL-60) of the same molecule?
**A.** The GI50 was > 100 µM (inactive).

**Q.** And the GI50 (HOP-62)?
**A.** Its GI50 is > 100 µM (inactive).

**Q.** And the GI50 (HOP-92)?
**A.** The GI50 was > 100 µM (inactive).

**Q.** And the GI50 (HT-29)?
**A.** Its GI50 is > 100 µM (inactive).

**Q.** What about the GI50 (Hs-578T) of the same molecule?
**A.** Its GI50 is > 100 µM (inactive).

**Q.** What about the GI50 (IGROV-1) of the same molecule?
**A.** The GI50 was > 100 µM (inactive).

**Q.** And the GI50 (K562)?
**A.** The GI50 was 74.3 µM (inactive).

**Q.** What about the GI50 (KM12) of the same molecule?
**A.** The GI50 was > 100 µM (inactive).

**Q.** And the GI50 (LOX IMVI)?
**A.** Its GI50 is > 100 µM (inactive).

**Q.** What about the GI50 (M14) of the same molecule?
**A.** Its GI50 is > 100 µM (inactive).

**Q.** And the GI50 (MCF7)?
**A.** Its GI50 is > 100 µM (inactive).

**Q.** And the GI50 (MDA-MB-231)?
**A.** Its GI50 is > 100 µM (inactive).

**Q.** What about the GI50 (MDA-MB-435) of the same molecule?
**A.** Its GI50 is > 100 µM (inactive).

**Q.** And the GI50 (MDA-N)?
**A.** Its GI50 is > 100 µM (inactive).

**Q.** What about the GI50 (MOLT-4) of the same molecule?
**A.** The GI50 was > 100 µM (inactive).

**Q.** What about the GI50 (NCI-H226) of the same molecule?
**A.** Its GI50 is > 100 µM (inactive).

**Q.** And the GI50 (NCI-H23)?
**A.** Its GI50 is > 100 µM (inactive).

**Q.** What about the GI50 (NCI-H460) of the same molecule?
**A.** The GI50 was 97.9 µM (inactive).

**Q.** And the GI50 (NCI-H522)?
**A.** Its GI50 is > 100 µM (inactive).

**Q.** And the GI50 (NCI/ADR-RES)?
**A.** The GI50 was > 100 µM (inactive).

**Q.** What about the GI50 (OVCAR-3) of the same molecule?
**A.** Its GI50 is > 100 µM (inactive).

**Q.** What about the GI50 (OVCAR-4) of the same molecule?
**A.** The GI50 was > 100 µM (inactive).

**Q.** And the GI50 (OVCAR-5)?
**A.** The GI50 was > 100 µM (inactive).

**Q.** And the GI50 (OVCAR-8)?
**A.** The GI50 was > 100 µM (inactive).

**Q.** What about the GI50 (PC-3) of the same molecule?
**A.** Its GI50 is > 100 µM (inactive).

**Q.** And the GI50 (RPMI-8226)?
**A.** The GI50 was > 100 µM (inactive).

**Q.** What about the GI50 (RXF 393) of the same molecule?
**A.** The GI50 was > 100 µM (inactive).

**Q.** What about the GI50 (SF-268) of the same molecule?
**A.** Its GI50 is > 100 µM (inactive).

**Q.** And the GI50 (SF-295)?
**A.** The GI50 was > 100 µM (inactive).

**Q.** What about the GI50 (SF-539) of the same molecule?
**A.** Its GI50 is > 100 µM (inactive).

**Q.** What about the GI50 (SK-MEL-28) of the same molecule?
**A.** Its GI50 is > 100 µM (inactive).

**Q.** And the GI50 (SK-MEL-2)?
**A.** The GI50 was > 100 µM (inactive).

**Q.** And the GI50 (SK-MEL-5)?
**A.** The GI50 was 44 µM (inactive).

**Q.** And the GI50 (SN12C)?
**A.** Its GI50 is > 100 µM (inactive).

**Q.** What about the GI50 (SNB-19) of the same molecule?
**A.** Its GI50 is > 100 µM (inactive).

**Q.** What about the GI50 (SNB-75) of the same molecule?
**A.** The GI50 was > 100 µM (inactive).

**Q.** What about the GI50 (SR) of the same molecule?
**A.** The GI50 was 42.1 µM (inactive).

**Q.** What about the GI50 (SW-620) of the same molecule?
**A.** The GI50 was > 100 µM (inactive).

**Q.** And the GI50 (T47D)?
**A.** The GI50 was > 100 µM (inactive).

**Q.** What about the GI50 (TK-10) of the same molecule?
**A.** Its GI50 is > 100 µM (inactive).

**Q.** And the GI50 (U-251)?
**A.** The GI50 was > 100 µM (inactive).

**Q.** What about the GI50 (UACC-257) of the same molecule?
**A.** The GI50 was > 100 µM (inactive).

**Q.** And the GI50 (UACC-62)?
**A.** Its GI50 is > 100 µM (inactive).

**Q.** And the GI50 (UO-31)?
**A.** The GI50 was > 100 µM (inactive).
